Experimental findings from US9796719B2, “Compounds and pharmaceutical compositions thereof for the treatment of inflammatory disorders” (GALAPAGOS NV, priority 2013, dated 2017) are described below.

Broadly, the IC50 is the midpoint of a concentration-inhibition curve.

The structures appear in SMILES notation.

The target in this test is hENPP2 (UniProtKB/SwissProt Sequence ref Q13822) (Homo sapiens (Human), UniProt Q13822). Put plainly: LPC hENPP2 assay (choline release, LPC as substrate). The format is biochemical. How it is done: The principle of the assay consists in quantifying the released choline with an enzymatic method using choline oxidase and peroxidase. Choline oxydation by choline oxydase releases betaine and peroxide. The latter is quantified in presence of HRP that converts the peroxide detection agent TOOS and 4-aminoantipyrine into quinoneimine dye. The appearance of quinoneimine dye is measured spectrophotometrically at 555 nm and is proportional to the amount of choline released by ENPP2. Inhibition of ENPP2 will result in a decrease of the signal.
The reaction is terminated and choline quantified by the addition of a 25 μL of a mixture containing 0.6 U/mL of choline oxidase, 0.6 U/mL of peroxydase, 1.8 mM TOOS, 1.2 mM amino-antipyrine, 20 mM EGTA (stop-developer solution) diluted in the buffer described above. […] is read on the Envision after an incubation of 30 min at room temperature (Excitation 555 nm, excitation light=70%).

Turning to `CCc1nc2cnc(N3CCN(CC(=O)N4CC(O)C4)CC3)cn2c1N(C)c1cccc(-c2ccc(F)cc2C#N)n1` [Cpd 17, 2-(6-((2-ethyl-6-(4-(2-(3-hydroxyazetidin-1-yl)-2-oxoethyl)piperazin-1-yl)imidazo[1,2-a]pyrazin-3-yl)(methyl)amino)pyridin-2-yl)-5-fluorobenzonitrile], the half-inhibitory concentration (IC50) was more than 1000 nM. As to `CCc1nc2ccc(N3CCC(O)(CNC(C)=O)C3)nn2c1N(C)c1nc(-c2ccc(F)cc2)c(C#N)s1` (centres unmarked) [Cpd 169, N-((1-(3-((5-cyano-4-(4-fluorophenyl)thiazol-2-yl)(methyl)amino)-2-ethylimidazo[1,2-b]pyridazin-6-yl)-3-hydroxypyrrolidin-3-yl)methyl)acetamide], the IC50 was in the range of 0.01 to 100 nM. `CCc1nc2ccc(N3CCN(CCCO)CC3)nn2c1N(C)c1nc(-c2ccc(F)cc2)c(CO)s1` [Cpd 50, 3-(4-(2-ethyl-3-((4-(4-fluorophenyl)-5-(hydroxymethyl)thiazol-2-yl)(methyl)amino)imidazo[1,2-b]pyridazin-6-yl)piperazin-1-yl)propan-1-ol] had an IC50 of more than 1000 nM. Under `CCc1nc2ccc(N3CCN(CC(=O)N4C(C)CCC4C)CC3)nn2c1N(C)c1nc(-c2ccc(F)cc2)cs1` (stereo not drawn) [Cpd 32, 1-(2,5-dimethylpyrrolidin-l-yl)-2-(4-(2-ethyl-3-((4-(4-fluorophenyl)thiazol-2-yl)(methyl)amino)imidazo[1,2-b]pyridazin-6-yl)piperazin-1-yl)ethanone] stands more than 1000 nM; under `CCc1nc2ccc(N3CC(C(=O)N4CCOCC4)C3)nn2c1N(C)c1nc(-c2ccc(F)cc2)c(C#N)s1` [Cpd 191, 2-((2-ethyl-6-(3-(morpholine-4-carbonyl)azetidin-1-yl)imidazo[1,2-b]pyridazin-3-yl)(methyl)amino)-4-(4-fluorophenyl) thiazole-5-carbonitrile], 100 to 500 nM. Turning to `CCc1nc2ccc(N3CCN(S(C)(=O)=O)[C@H](CO)C3)nn2c1N(C)c1nc(-c2ccc(F)cc2)c(C#N)s1` [Cpd 161, (S)-2-((2-ethyl-6-(3-(hydroxymethyl)-4-(methylsulfonyl)piperazin-1-yl)imidazo[1,2-b]pyridazin-3-yl)(methyl)amino)-4-(4-fluorophenyl) thiazole-5-carbonitrile], the IC50 lay within 100 to 500 nM. In the case of `CCc1nc2ccc(N3CCN(S(C)(=O)=O)[C@@H](CO)C3)nn2c1N(C)c1nc(-c2ccc(F)cc2)cs1` [Cpd 69, (R)-(4-(2-ethyl-3-((4-(4-fluorophenyl)thiazol-2-yl)(methyl)amino)imidazo[1,2-b]pyridazin-6-yl)-1-(methylsulfonyl)piperazin-2-yl)methanol], the IC50 was more than 1000 nM. The value for `CCc1nc2ccc(C3CCN(CC(=O)N4CC(O)C4)CC3)nn2c1N(C)c1nc(-c2ccc(F)cc2C#N)ns1` [Cpd 220, 2-(5-((2-ethyl-6-(1-(2-(3-hydroxyazetidin-1-yl)-2-oxoethyl)piperidin-4-yl)imidazo[1,2-b]pyridazin-3-yl)(methyl)amino)-1,2,4-thiadiazol-3-yl)-5-fluorobenzonitrile] was 100 to 500 nM; that for `CCc1nc2ccc(N3CCN(CC(=O)N4CCCC4C)CC3)nn2c1N(C)c1nc(-c2ccc(F)cc2)cs1` (centres unmarked) [Cpd 28, 2-(4-(2-ethyl-3-((4-(4-fluorophenyl)thiazol-2-yl)(methyl)amino)imidazo[1,2-b]pyridazin-6-yl)piperazin-1-yl)-1-(2-methylpyrrolidin-1-yl)ethanone] was 100 to 500 nM; that for `CCc1nc2ccc(N3CCC(NC(=O)C4CCN(C(=O)OC(C)(C)C)CC4)CC3)nn2c1N(C)c1nc(-c2ccc(F)cc2)cs1` [Cpd 87, tert-butyl 4-(1-(2-ethyl-3-((4-(4-fluorophenyl)thiazol-2-yl)(methyl)amino)imidazo[1,2-b]pyridazin-6-yl)piperidin-4-ylcarbamoyl) piperidine-1-carboxylate] was more than 1000 nM. Consider `CCc1nc2cnc(C3=CCN(S(C)(=O)=O)CC3)cn2c1N(C)c1nc(-c2ccc(F)cc2)c(C#N)s1` [Cpd 20, 2-((2-ethyl-6-(1-(methylsulfonyl)-1,2,3,6-tetrahydropyridin-4-yl)imidazo[1,2-a]pyrazin-3-yl)(methyl)amino)-4-(4-fluorophenyl) thiazole-5-carbonitrile], for which the IC50 is more than 1000 nM.

Take `CCc1nc2ccc(N3CCC(N(C)C)CC3)nn2c1N(C)c1nc(-c2ccc(F)cc2)cs1` [Cpd 80, N-(6-(4-(dimethylamino)piperidin-1-yl)-2-ethylimidazo[1,2-b]pyridazin-3-yl)-4-(4-fluorophenyl)-N-methylthiazol-2-amine]: the IC50 was more than 1000 nM. `CCc1nc2ccc(N3CCC4(CN(C)C(=O)O4)C3)nn2c1N(C)c1nc(-c2ccc(F)cc2)c(C#N)s1` (centres unmarked) [Cpd 164, 2-((2-ethyl-6-(3-methyl-2-oxo-1-oxa-3,7-diazaspiro[4.4]nonan-7-yl)imidazo[1,2-b]pyridazin-3-yl)(methyl)amino)-4-(4-fluorophenyl) thiazole-5-carbonitrile] displayed a half-inhibitory concentration (IC50) of 100 to 500 nM. With `CCc1nc2ccc(N3CCCC(N4CCC(O)CC4)C3)nn2c1N(C)c1nc(-c2ccc(F)cc2)cs1` (centres unmarked) [Cpd 112, l′-(2-ethyl-3-((4-(4-fluorophenyl)thiazol-2-yl)(methyl)amino)imidazo[1,2-b]pyridazin-6-yl)-1,3′-bipiperidin-4-ol], the concentration for half-maximal inhibition (IC50) was more than 1000 nM.

Take `CCc1nc2ccc(C3CCN(CC(=O)NC)CC3)nn2c1N(C)c1nc(-c2ccc(F)cc2C#N)cs1` [Cpd 209, 2-(4-(3-((4-(2-cyano-4-fluorophenyl)thiazol-2-yl)(methyl)amino)-2-ethylimidazo[1,2-b]pyridazin-6-yl)piperidin-1-yl)-N-methylacetamide]: the IC50 was in the range of 100 to 500 nM. Regarding `CCc1nc2ccc(N3CCC(NC(=O)N4CCCC4)CC3)nn2c1N(C)c1nc(-c2ccc(F)cc2)cs1` [Compound 89, N-(1-(2-ethyl-3-((4-(4-fluorophenyl)thiazol-2-yl)(methyl)amino)imidazo[1,2-b]pyridazin-6-yl)piperidin-4-yl)pyrrolidine-1-carboxamide], the IC50 is 500 to 1000 nM. With `CCc1nc2ccc(N3CCCC4(CNC(=O)O4)C3)nn2c1N(C)c1nc(-c2ccc(F)cc2)c(C#N)s1` (centres unmarked) [Cpd 162, 2-((2-ethyl-6-(2-oxo-1-oxa-3,7-diazaspiro[4.5]decan-7-yl)imidazo [1,2-b]pyridazin-3-yl)(methyl)amino)-4-(4-fluorophenyl) thiazole-5-carbonitrile], the IC50 fell in the range of 100 to 500 nM. Under `CCc1nc2ccc(N3CCN(CC(=O)N(C)C(C)C)CC3)nn2c1N(C)c1nc(-c2ccc(F)cc2)cs1` [Cpd 37, 2-(4-(2-ethyl-3-((4-(4-fluorophenyl)thiazol-2-yl)(methyl)amino)imidazo[1,2-b]pyridazin-6-yl)piperazin-1-yl)-N-isopropyl-N-methylacetamide] stands 100 to 500 nM; under `CCc1nc2ccc(N3CCC(CNS(C)(=O)=O)CC3)nn2c1N(C)c1nc(-c2ccc(F)cc2)cs1` [Cpd 105, N-((1-(2-ethyl-3-((4-(4-fluorophenyl)thiazol-2-yl)(methyl)amino)imidazo[1,2-b]pyridazin-6-yl)piperidin-4-yl)methyl) methanesulfonamide], more than 1000 nM; under `CCc1nc2ccc(N3C[C@H](O)[C@@H](N4CCOCC4)C3)nn2c1N(C)c1nc(-c2ccc(F)cc2)c(C#N)s1` [Cpd 184], 0.01 to 100 nM.
